Data from PubChem BioAssay (NCI).
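Dose response: 5 concentrations. Exposure: 48 h. Format: 96-well plates. Endpoint: linear interpolation; highest concentration if not reached. GI50: concentration for 50% inhibition of growth. At the TGI there is no net growth.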

Columns and labels:
Test in all cases: DTP human tumour cell line panel, 48 h
[1] = system: CAKI-1 renal
[2] = system: SK-MEL-28 melanoma
[3] = system: COLO 205 colon
[4] = system: RPMI-8226 leukemia
[5] = system: T-47D breast
[6] = system: SF-295 CNS
[7] = system: SNB-19 CNS
[8] = system: CCRF-CEM leukemia
[9] = system: HOP-92 NSCLC
[10] = system: NCI-H226 lung
[11] = system: KM12 colon
[12] = system: NCI-H23 lung
[13] = system: HS 578T breast
[14] = system: UACC-62 melanoma
[15] = system: A549 NSCLC
[16] = system: HCT-116 colon
[17] = system: MDA-MB-435
[18] = system: SNB-75 CNS
[19] = system: HOP-62 NSCLC
[20] = system: ACHN renal
[21] = system: NCI/ADR-RES ovarian
[22] = system: K-562 leukemia
[23] = system: U251 CNS
[24] = system: UACC-257 melanoma
[25] = system: BT-549 breast
[26] = system: MCF7 breast
[27] = system: HL-60(TB) leukemia
[28] = system: SW-620 colon
[29] = system: HT29 colon
[30] = system: HCT-15 colon
[31] = system: DU-145 prostate
[32] = system: IGROV1 ovarian
[33] = system: NCI-H460 lung
[34] = system: HCC-2998 colon
[35] = system: SF-539 CNS
[36] = system: OVCAR-4 ovarian
[37] = system: SF-268 CNS
[38] = system: MDA-MB-231 breast
[39] = system: 786-0 renal
[40] = system: SK-MEL-5 melanoma
[41] = system: OVCAR-3 ovarian
[42] = system: MALME-3M melanoma
[43] = system: SK-OV-3 ovarian
[44] = system: UO-31 renal
[45] = system: OVCAR-8 ovarian
[46] = system: M14 melanoma
[47] = system: SK-MEL-2 melanoma
[48] = system: RXF 393 renal
[49] = system: MOLT-4 leukemia
[50] = system: PC-3 prostate
[51] = system: SN12C renal
[52] = system: TK-10 renal
[53] = system: OVCAR-5 ovarian
[54] = system: A498 renal
[55] = system: SR leukemia

## CN(C)c1ccc2nc3ccc(=N)cc-3sc2c1
[1]
  GI50: 4.21 µM
  TGI: 19.3 µM
[2]
  GI50: 11.9 µM
  TGI: 27.7 µM
[3]
  GI50: 2.73 µM
  TGI: 10.3 µM
[4]
  GI50: 1.21 µM
  TGI: 25.7 µM
[5]
  GI50: 3.63 µM
  TGI: 21.3 µM
[6]
  GI50: 5.98 µM
  TGI: 21.2 µM
[7]
  GI50: 2.86 µM
  TGI: 21.1 µM
[8]
  GI50: 2.15 µM
  TGI: > 100 µM
[9]
  GI50: 3.79 µM
  TGI: 41.6 µM
[10]
  GI50: 12.1 µM
  TGI: 28.8 µM
[11]
  GI50: 3.67 µM
  TGI: 21.7 µM
[12]
  GI50: 3.3 µM
  TGI: 49.5 µM
[13]
  GI50: 11.4 µM
  TGI: 39.5 µM
[14]
  GI50: 2.66 µM
  TGI: 8.19 µM
[15]
  GI50: 2.37 µM
  TGI: 13.9 µM
[16]
  GI50: 2.38 µM
  TGI: 12.5 µM
[17]
  GI50: 1.75 µM
  TGI: 3.63 µM
[18]
  GI50: 3.29 µM
  TGI: 15.4 µM
[19]
  GI50: 6.87 µM
  TGI: 51.5 µM
[20]
  GI50: 5.43 µM
  TGI: 39.8 µM
[21]
  GI50: 3.11 µM
  TGI: 48.3 µM
[22]
  GI50: 2.61 µM
  TGI: > 100 µM
[23]
  GI50: 2.71 µM
  TGI: 10.5 µM
[24]
  GI50: 2.6 µM
  TGI: 9.71 µM
[25]
  GI50: 7.74 µM
  TGI: 69 µM
[26]
  GI50: 1.91 µM
  TGI: 6.29 µM
[27]
  GI50: 7.53 µM
  TGI: 32.9 µM
[28]
  GI50: 2.83 µM
  TGI: 12.9 µM
[29]
  GI50: 21.6 µM
  TGI: 63.5 µM
[30]
  GI50: 3.07 µM
  TGI: 24.4 µM
[31]
  GI50: 14.3 µM
  TGI: 28.3 µM
[32]
  GI50: 8.59 µM
  TGI: 35.9 µM
[33]
  GI50: 7.06 µM
  TGI: > 100 µM
[34]
  GI50: 8.39 µM
  TGI: > 100 µM
[35]
  GI50: 2.2 µM
  TGI: 5.12 µM
[36]
  GI50: 1.04 µM
  TGI: 2.47 µM
[37]
  GI50: 4.13 µM
  TGI: 20 µM
[38]
  GI50: 1.88 µM
  TGI: 11.8 µM
[39]
  GI50: 11.8 µM
  TGI: 28.7 µM
[40]
  GI50: 1.51 µM
  TGI: 5.78 µM
[41]
  GI50: 2.75 µM
  TGI: 12 µM
[42]
  GI50: 2.26 µM
  TGI: 7.67 µM
[43]
  GI50: 10.6 µM
  TGI: 38.7 µM
[44]
  GI50: 11.6 µM
  TGI: 31.2 µM
[45]
  GI50: 2.14 µM
  TGI: 12 µM
[46]
  GI50: 3.9 µM
  TGI: 14.3 µM
[47]
  GI50: 9.24 µM
  TGI: 26.8 µM
[48]
  GI50: 10.4 µM
  TGI: 26.8 µM
[49]
  GI50: 3.47 µM
  TGI: > 100 µM
[50]
  GI50: 1.03 µM
  TGI: 14.2 µM
[51]
  GI50: 2.37 µM
  TGI: 8.06 µM
[52]
  GI50: 7.76 µM
  TGI: 31.4 µM
[53]
  GI50: 11 µM
  TGI: 29.4 µM
[54]
  GI50: 2.02 µM
  TGI: 39.5 µM
[55]
  GI50: 6.86 µM
  TGI: > 100 µM
